# Reference: DBAASP
# Experiments:
# Assay in all cases: ≥ marks a high value that may be exact or a test limit, other limits are often not marked, values filed in µg/mL are converted to µM
# Bacillus subtilis = test system: Bacillus subtilis
# Escherichia coli W160-37 = test system: Escherichia coli W160-37
# Micrococcus luteus MT166 = test system: Micrococcus luteus MT166
# [1] = test system: Pseudomonas putida NCIM 2102
# [2] = test system: Saccharomyces cerevisiae ATCC 8530
# [3] = test system: Staphylococcus aureus ATCC 8530
# [4] = test system: Aspergillus awamori KCTC 6915
# [5] = test system: Aspergillus flavus KCTC 6905
# [6] = test system: Aspergillus fumigatus KCTC 6145
# [7] = test system: Aspergillus parasiticus KCTC 6598
# [8] = test system: Bacillus subtilis KCTC 1918
# [9] = test system: Bacillus subtilis KCTC 1998
# [10] = test system: Candida albicans KCTC 7270
# [11] = test system: Escherichia coli CCARM 1229
# [12] = test system: Escherichia coli CCARM 1238
# [13] = test system: Listeria monocytogenes ATCC 19115
# [14] = test system: Listeria monocytogenes KCTC 3710
# [15] = test system: Proteus vulgaris KCTC 2433
# [16] = test system: Pseudomonas aeruginosa 3547
# [17] = test system: Pseudomonas aeruginosa 4007
# [18] = test system: Pseudomonas aeruginosa ATCC 15692
# [19] = test system: Pseudomonas aeruginosa KCTC 1637
# [20] = test system: Salmonella typhimurium CCARM 8009
# [21] = test system: Salmonella typhimurium CCARM 8013
# [22] = test system: Salmonella typhimurium KCTC 1926
# [23] = test system: Staphylococcus aureus CCARM 3089
# [24] = test system: Staphylococcus aureus CCARM 3114
# [25] = test system: Staphylococcus aureus PBEL
# [26] = test system: Staphylococcus epidermidis ATCC 12228
# [27] = test system: Staphylococcus epidermidis KCTC 3096
# [28] = test system: Trichosporon beigelii KCTC 7707
# [29] = test system: Candida albicans ATCC 2002
# [30] = test system: Candida albicans ATCC 90028
# [31] = test system: Candida parapsilosis ATCC 22019
# [32] = test system: Enterobacter cloacae ATCC 13047
# [33] = test system: Enterococcus faecalis ATCC 29212
# Escherichia coli 117 = test system: Escherichia coli 117
# Escherichia coli 218 = test system: Escherichia coli 218
# Escherichia coli 37 = test system: Escherichia coli 37
# [34] = test system: Escherichia coli ATCC 25922
# [35] = test system: Klebsiella pneumoniae ATCC 700603
# Klebsiella pneumoniae = test system: Klebsiella pneumoniae
# [36] = test system: Pseudomonas aeruginosa ATCC 27853
# [37] = test system: Pseudomonas aeruginosa CMCCB 1010
# Pseudomonas aeruginosa = test system: Pseudomonas aeruginosa
# Shigella dysenteriae = test system: Shigella dysenteriae
# Staphylococcus aureus 37 = test system: Staphylococcus aureus 37
# [38] = test system: Staphylococcus aureus ATCC 25923
# [39] = test system: Pseudomonas aeruginosa 253
# [40] = test system: Pseudomonas aeruginosa 910
# [41] = test system: Pseudomonas aeruginosa 919
# [42] = test system: Pseudomonas aeruginosa PAO1
smiles,measurement,setting,value
CC[C@H](C)[C@@H]1NC(=O)[C@H](CCSC)NC(=O)[C@H]([C@@H](C)O)NC(=O)[C@@H](NC(=O)[C@@H](N)Cc2ccccc2)CSSC[C@@H](C(=O)N[C@@H](Cc2ccc(O)cc2)C(N)=O)NC(=O)[C@H](CCCN=C(N)N)NC(=O)[C@@H]2CCCN2C(=O)[C@H]([C@@H](C)CC)NC(=O)[C@@H]2CCCN2C1=O [FCTMIPIPRCY],MIC,Bacillus subtilis,22.3 µM
same,MIC,Escherichia coli W160-37,29.8 µM
same,MIC,Micrococcus luteus MT166,14.9 µM
same,MIC,[1],29.8 µM
same,MIC,[2],≥ 59.5 µM
same,MIC,[3],22.3 µM
CC[C@H](C)[C@H](NC(=O)[C@H](CCCCN)NC(=O)[C@H](CCCCN)NC(=O)[C@H](Cc1ccccc1)NC(=O)[C@H](CC(C)C)NC(=O)[C@H](CCCCN)NC(=O)[C@H](CCCCN)NC(=O)[C@H](CC(C)C)NC(=O)[C@H](CCCN=C(N)N)NC(=O)[C@H](CCCCN)NC(=O)[C@@H](N)Cc1ccccc1)C(=O)N[C@@H](Cc1c[nH]c2ccccc12)C(=O)N[C@@H](CC(N)=O)C(=O)N[C@@H](Cc1c[nH]c2ccccc12)C(=O)N[C@@H](CCCCN)C(N)=O [FKRLKKLFKKIWNWK],MIC,[4],16 µM
same,MIC,[5],16 µM
same,MIC,[6],4 µM
same,MIC,[7],8 µM
same,MIC,[8],2 µM
same,MIC,[9],2 µM
same,MIC,[10],8 µM
same,MIC,[11],2 µM
same,MIC,[12],2 µM
same,MIC,[13],2 µM
same,MIC,[14],2 µM
same,MIC,[15],8 µM
same,MIC,[16],4 µM
same,MIC,[17],1 µM
same,MIC,[18],2 µM
same,MIC,[19],2 µM
same,MIC,[20],4 µM
same,MIC,[21],1 µM
same,MIC,[22],2 µM
same,MIC,[23],2 µM
same,MIC,[24],2 µM
same,MIC,[25],1 µM
same,MIC,[26],2.83 µM
same,MIC,[27],2.83 µM
same,MIC,[28],16 µM
CC[C@H](C)[C@H](NC(=O)[C@H](C)NC(=O)[C@H](CCCCN)NC(=O)[C@H](CC(C)C)NC(=O)[C@@H](N)CC(N)=O)C(=O)N[C@@H](C)C(=O)N[C@@H](C)C(=O)N[C@@H](CC(C)C)C(=O)N[C@@H](C)C(=O)N[C@@H](CCCCN)C(=O)N[C@@H](CCCCN)C(=O)N[C@@H](CC(C)C)C(=O)N[C@@H](CC(C)C)C(=O)O [NLKAIAALAKKLL],MIC,[29],7.32 µM
same,MIC,[30],7.32 µM
same,MIC,[31],29.3 µM
same,MIC,[32],7.32 µM
same,MIC,[33],3.66 µM
same,MIC,Escherichia coli 117,14.6 µM
same,MIC,Escherichia coli 218,7.32 µM
same,MIC,Escherichia coli 37,3.66 µM
same,MIC,[34],14.6 µM
same,MIC,[35],14.6 µM
same,MIC,Klebsiella pneumoniae,7.32 µM
same,MIC,[36],29.3 µM
same,MIC,[37],14.6 µM
same,MIC,Pseudomonas aeruginosa,7.32 µM
same,MIC,Shigella dysenteriae,14.6 µM
same,MIC,Staphylococcus aureus 37,7.32 µM
same,MIC,[38],3.66 µM
CC[C@H](C)[C@H](NC(=O)[C@H](CCCN=C(N)N)NC(=O)[C@H](Cc1c[nH]c2ccccc12)NC(=O)[C@H](CC(C)C)NC(=O)[C@@H](N)CCCN=C(N)N)C(=O)N[C@H](C(=O)N[C@H](C(=O)N[C@H](C(=O)N[C@@H](CCCN=C(N)N)C(=O)N[C@H](C(=O)N[C@@H](CCCCN)C(=O)N[C@@H](CCCN=C(N)N)C(N)=O)C(C)C)[C@@H](C)CC)C(C)C)C(C)C [RLWRIVVIRVKR],MIC,[39],16 µM
same,MIC,[40],≥ 32 µM
same,MIC,[41],≥ 32 µM
same,MIC,[42],16 µM
